Experimental findings from article PMC9583322, “Vicinal Diaryl-Substituted Isoxazole and Pyrazole Derivatives with In Vitro Growth Inhibitory and In Vivo Antitumor Activity” (ACS Omega, 2022) are described below.

pIC50: −log10 of the molar value.

Test [1] relates to MDA-MB468. The test can be described thus: SRB cytotoxicity assay. The class given is cell-based. The conditions noted are these: Homo sapiens, MDA-MB-468, 72 h treatment. Here is the method:
(§1) HepG2, FOCUS, Hep3B, Mahlavu, Huh7, Hep40, and PLC-PRF-5 hepatocellular carcinoma cells; MCF-7, MDA-MB-231, MDA-MB-468, SKBR3, and ZR-75 breast cancer cells; and normal-like epithelial MCF-10A breast cells were cultured in low-glucose Dulbecco’s modified Eagle’s medium (DMEM) (Biological Industries-BI) supplemented with 10% fetal bovine serum (FBS) (Gibco/Thermo Fisher Scientific), 2 mM L-Glutamine (Gibco/Thermo Fisher Scientific), 100 Units/mL Penicillin/Streptomycin, and 0.1 mM non-essential amino acid (Gibco/Thermo Fisher Scientific). SNU475 hepatocellular carcinoma cells were maintained in RPMI (Biological Industries-BI) supplemented with 10% fetal bovine serum (FBS) (Gibco/Thermo Fisher Scientific), L-Glutamine (Gibco/Thermo Fisher Scientific), and 100 Units/mL Penicillin/Streptomycin, while ZR-75 breast cancer cells were cultured RPMI (Biological Industries-BI) supplemented with 10% fetal bovine serum (FBS) (Gibco/Thermo Fisher Scientific), 1× sodium pyruvate, and %4.5 glucose. Normal-like MCF-10A breast cells were sustained in DMEM/HAM’S F12 (Hyclone) supplemented with 10% fetal bovine serum (FBS) (Gibco/Thermo Fisher Scientific), EGF (20 ng/mL), Hydrocortisone ([…]), cholera toxin (100 ng/mL), insulin (10 μg/mL), and 100 Units/mL Penicillin/Streptomycin. The cells were cultivated at 37 °C in a humidified incubator under 5% CO2.
(§2) Mahlavu, FOCUS, SNU475 (1000 cell/well in 150 μL/well); Huh7, MCF7 (2500 cell/well in 150 μL/well); HepG2, Hep3B, SKBR3 (3000 cell/well in 150 μL/well); PLC-PRF-5, Hep40 (5000 cell/well in 150 μL/well); MDA-MB-231, MDA-MB-468, MCF10A (6000 cell/well in 150 μL/well); and ZR-75 (7500 cell/well in 150 μL/well) were cultured in 96-well plates and were inoculated in an incubator for 24 hours. The compounds were dissolved in dimethyl sulfoxide (DMSO) (Sigma, St Louis, MO) as a 20 mM stock solution. The treatment of cells with the compounds was done in a concentration range starting from 40 to 2.5 μM. The compounds which were below 2.5 μM were tested in a concentration range from 2.5 to 0.15 μM. End of the 72h compound treatment, the cells were fixed using 10% (v/v) trichloroacetic acid (MERCK) for an hour and washed with ddH2O, and left for air-drying. The fixed plates were stained with 50 μL of sulforhodamine B (SRB) solution (Sigma) at RT for 10 min. To remove unbound SRB dye, acetic acid was used to wash cells three times and left for drying. The protein-bound SRB was solubilized with 10 mM Tris-base (Sigma) and their absorbance was measured with a 96-well plate reader at 515 nm wavelength (ELx800, Biotek). The IC50 values of compounds were calculated in comparison with control group DMSO. Data with R^2 values larger than 0.9 are considered significant.

In test [2] the test system is FOCUS. The test can be described thus: SRB cytotoxicity assay. Particulars: Homo sapiens, 72 h treatment. The class given is cell-based. Here is the method:
as §1, §2

For test [3], the system named is Hep3B. The test can be described thus: SRB cytotoxicity assay. The class given is cell-based. Particulars: Homo sapiens, 72 h treatment. Here is the method:
as §1, §2

For test [4], the system named is ZR75. The test can be described thus: SRB cytotoxicity assay. In kind it is cell-based. The conditions noted are these: Homo sapiens, 72 h treatment. Here is the method: as §1, §2
Test [5] deals with PLC-PRF-5. The test can be described thus: SRB cytotoxicity assay. In kind it is cell-based. The conditions noted are these: Homo sapiens, 72 h treatment. Here is the method: as §1, §2
Test [6] has as its system SKBR3. The test can be described thus: SRB cytotoxicity assay. The class given is cell-based. Particulars: Homo sapiens, SK-BR-3, 72 h treatment. Here is the method: as §1, §2
Test [7] concerns Hep40. The test can be described thus: SRB cytotoxicity assay. The conditions noted are these: Homo sapiens, 72 h treatment. In kind it is cell-based. The protocol: as §1, §2
Test [8] deals with SNU475. The test can be described thus: SRB cytotoxicity assay. In kind it is cell-based. The conditions noted are these: Homo sapiens, SNU-475, 72 h treatment. Here is the method: as §1, §2
In test [9] the test system is HepG2. The test can be described thus: SRB cytotoxicity assay. The class given is cell-based. The conditions noted are these: Homo sapiens, 72 h treatment. Here is the method: as §1, §2
For test [10], the system named is MDA-MB231. The test can be described thus: SRB cytotoxicity assay. In kind it is cell-based. The conditions noted are these: Homo sapiens, MDA-MB-231, 72 h treatment. Here is the method:
as §1, §2

Test [11] concerns Mahlavu, Huh7, MCF7, and MDA-MB-231. The test can be described thus: Annexin V flow cytometry. In kind it is cell-based, human. The conditions noted are these: 5 μM; compared to the control group. Here is the method: Mahlavu, Huh7, MCF7, and MDA-MB-231 were seeded onto six-well plates. After 24 h, the cells were incubated with 5 μM compounds 11 and 85 by keeping DMSO as a negative control. […] PI and Annexin V dyes were added onto cell lysates for 15 min at room temperature in the dark to stain the cells for detecting apoptotic cell populations. The cells were analyzed by flow cytometry.

Test [12] has as its system Mahlavu, Huh7, MDA-MB-231, and MCF-7. The test can be described thus: Real-time cell electronic sensing (RT-CES). Particulars: 2.5, 5, 10 μM; compared to control (DMSO). The class given is cell-based, human. The protocol: (§3) To monitor the real-time cell growth of cells and cytotoxicity of compounds, the xCELLigence system (Roche Applied Sciences) was used. The cells were seeded onto 96-well E-Plate Mahlavu (1500 cell/well), MCF7, Huh7 (2500 cell/well), MDA-MB-231 (5000 cell/well), and MCF10A (6000 cell/well) in 100 μL of the medium/well. To examine the proliferation of cells, the cellular growth was monitored as cell index (CI) every 30 min for 24 h. When the cells were in a log growth phase, treatment with compounds 11 and 85 in 2.5, 5, and 10 μM concentrations was done, the CI values were recorded every 10 min for 24 h for controlling fast drug response and then every 30 min for the remaining 48 h for long-term dose response. After 72 h of incubation, the cellular growth ratios were calculated by CIDrug/CIDMSO.

Test [13] deals with MCF10A. The test can be described thus: Real-time cell electronic sensing (RT-CES). In kind it is cell-based, human. The conditions noted are these: 2.5, 5, 10 μM; immortalized normal breast epithelial cells. Here is the method:
as §3

Test [14] has as its system HL-60 (TB). The test can be described thus: NCI-60 single-dose screen. In kind it is cell-based. The conditions noted are these: Homo sapiens, Leukemia, read-out: % Growth Inhibition (GI%). The protocol:
(§4) Moreover, in vitro single-dose anticancer screening of 11 and 85 at 10 μM was performed utilizing the stable panel of 60 cell lines comprising 9 different cancer types at the National Cancer Institute (NCI) under the Developmental Therapeutics Program (Table S1).[31]

Test [15] deals with TK-10. The test can be described thus: NCI-60 single-dose screen. The conditions noted are these: Homo sapiens, TK-10, Renal Cancer, read-out: % Growth Inhibition (GI%). In kind it is cell-based. Here is the method:
as §4

For test [16], the system named is RXF 393. The test can be described thus: NCI-60 single-dose screen. The class given is cell-based. The conditions noted are these: Homo sapiens, RXF 393, Renal Cancer, read-out: % Growth Inhibition (GI%). The protocol: as §4
Test [17] has as its system ACHN. The test can be described thus: NCI-60 single-dose screen. The class given is cell-based. The conditions noted are these: Homo sapiens, Renal Cancer, read-out: % Growth Inhibition (GI%). The protocol: as §4

`Cc1ccccc1COc1ccc(-c2noc(C)c2-c2ccc(Cl)cc2)cc1` [compound 11, 4-(4-Chlorophenyl)-5-methyl-3-(4-((2-methylbenzyl)oxy)phenyl)isoxazole]: the pIC50 in [1] is 5.55; in [2], 5.68; in test [3], 5.52; in test [4], 5.12; in test [5], 5.02; in test [6] it was 5.46. In addition, the pIC50 in test [7] was 5.07; in test [8], 5.77; in [9], 5.68; in test [10], 5.70. Also, the “percentage of apoptotic populations (Annexin V)” value in [11] is “increased”. In addition, the “Real-time cell growth response, cancer cell lines” value in [12] is reported as “inhibition in the growth”. Besides, the “Real-time cell growth response, MCF10A” value in test [13] is listed as “no difference in the growth”. For the same molecule, the inhibition at 10 µM turned out to be 82.3% in [14], 15.7% in test [15], 29.8% in test [16] and 33% in test [17].

In the case of `Cc1ccccc1COc1ccc(-c2ccnn2-c2ccc(Cl)cc2)cc1` [compound 85, 1-(4-Chlorophenyl)-5-(4-((2-methylbenzyl)oxy)phenyl)-1H-pyrazole], the pIC50 was 6.00 in [1]; 5.62 in test [2]; 5.10 in [3]; 5.26 in [4]; 5.19 in test [5]; 5.74 in test [6]. The pIC50 in test [7] was 5.28; in test [8], 5.82; in test [9], 5.85; in [10] it was 6.05. Further, the “percentage of apoptotic populations (Annexin V)” value in test [11] is on record as “increased”. Moreover, the “Real-time cell growth response, cancer cell lines” value in test [12] is “inhibition in the growth”. Moreover, the “Real-time cell growth response, MCF10A” value in [13] is on record as “no difference in the growth”. In addition, the inhibition at 10 µM worked out at 86.7% in test [14], 16.2% in [15], 39.7% in test [16] and 22.4% in test [17].
